Columns and labels:
RORγ-LBD = target: T1, RORγ-LBD (Homo sapiens, UniProt P51449); test: RORγ-Ligand Binding Domain (LBD) TR-FRET Assay; type: biochemical;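 for TR-FRET Assay Max Response: 665/615 nm ratio relative to signal without ursolic acid or compound set at 100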
T1 construct: made in house; host or cells: SF9 cells (baculovirus)
T1 sequence (P51449 269-508 limits assumed): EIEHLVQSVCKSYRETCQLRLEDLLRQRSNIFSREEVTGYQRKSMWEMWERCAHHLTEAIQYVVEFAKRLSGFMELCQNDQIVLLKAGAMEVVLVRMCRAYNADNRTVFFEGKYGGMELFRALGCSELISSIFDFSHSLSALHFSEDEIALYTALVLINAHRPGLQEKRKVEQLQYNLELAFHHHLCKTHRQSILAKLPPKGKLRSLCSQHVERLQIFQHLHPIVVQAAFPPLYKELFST
Outline: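 Lysate from SF9 cells expressing His-RORγ-LBD is diluted to about 3 nM final in 50 mM Tris pH 7.0 assay buffer. A biotin-tagged SRC1 LXXLL peptide goes in at 200 nM final, plus ursolic acid at 2 μM final. Test compounds carry 1% DMSO final; signal read by TR-FRET.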

Gal4-RORγ-LBD = target: T2, Gal4-RORγ-LBD (Homo sapiens, UniProt P51449); test: Gal4-RORγ Luciferase Reporter Assay in HEK-293T Cells; type: cell-based; conditions: HEK-293 cells, luciferase reporter, with 2 μM ursolic acid
T2 construct: expressed in transfected cells; host or cells: HEK-293 cells (pcDNA3.1neo plasmid)
T2 sequence (P51449 269-508 limits assumed): T1 sequence (P51449 269-508 limits assumed)
Outline: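 In transfected HEK-293 cells (Gal4-RORγ-LBD, Gal4-luciferase), test agents with 2 μM ursolic acid were incubated overnight at 37 °C before luminescent detection. Values are relative to the ursolic-acid-free, compound-free signal (100).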

| Structure (SMILES) | EC50 (RORγ-LBD) [nM] | TR-FRET Assay Max Response (RORγ-LBD) | EC50 (Gal4-RORγ-LBD) [nM] | Gal4-RORγ Assay Max Response (Gal4-RORγ-LBD) |
| --- | --- | --- | --- | --- |
| CCOc1ncc(C(F)(F)F)cc1S(=O)(=O)N1C[C@H](CCC(=O)O)Oc2ccc(-c3cccc(Cl)c3)cc21 [Compound 6D, (S)-3-(6-(3-chlorophenyl)-4-((2-ethoxy-5-(trifluoromethyl)-pyridin-3-yl)sulfonyl)-3,4-dihydro-2H-benzo[b][1,4]-oxazin-2-yl)propanoic acid] | < 500 | **** (The symbol “****” indicates a value greater than 200) | 500 to 5000 | ** (The symbol “**” indicates a value in the range of greater than 90 to 150) |
| O=C(O)CC[C@H]1CN(S(=O)(=O)c2cc(C(F)(F)F)cnc2OCCO)c2cc(-c3cccc(Cl)c3)ccc2O1 [Compound 6G] | < 500 | **** (The symbol “****” indicates a value greater than 200) | 500 to 5000 | ** (The symbol “**” indicates a value in the range of greater than 90 to 150) |
| O=C(O)CC[C@H]1CN(S(=O)(=O)c2cccc(C3CC3)c2)c2cc(-c3cccc(Cl)c3)ccc2O1 [Compound 6H, (S)-3-(6-(3-chlorophenyl)-4-((3-cyclopropylphenyl)sulfonyl)-3,4-dihydro-2H-benzo[b][1,4]oxazin-2-yl)propanoic acid] | < 500 | **** (The symbol “****” indicates a value greater than 200) | < 500 | ** (The symbol “**” indicates a value in the range of greater than 90 to 150) |
| Cc1c(C(F)(F)F)cccc1S(=O)(=O)N1C[C@H](CCC(=O)O)Oc2ccc(-c3cc(F)ccc3F)cc21 [Compound 6I, (S)-3-(6-(2,5-difluorophenyl)-4-((2-methyl-3-(trifluoromethyl)phenyl)-sulfonyl)-3,4-dihydro-2H-benzo[b][1,4]oxazin-2-yl)propanoic acid] | < 500 | *** (The symbol “***” indicates a value in the range of greater than 150 to 200) | 500 to 5000 | ** (The symbol “**” indicates a value in the range of greater than 90 to 150) |
| O=C(O)CC[C@H]1CN(S(=O)(=O)c2cc(F)cc(C(F)(F)F)c2)c2cc(-c3cc(F)ccc3F)ccc2O1 [Compound 6J, (S)-3-(6-(2,5-difluorophenyl)-4-((3-fluoro-5-(trifluoromethyl)phenyl)-sulfonyl)-3,4-dihydro-2H-benzo[b][1,4]oxazin-2-yl)propanoic acid] | < 500 | *** (The symbol “***” indicates a value in the range of greater than 150 to 200) | < 500 | ** (The symbol “**” indicates a value in the range of greater than 90 to 150) |
| COc1cc(S(=O)(=O)N2C[C@H](CCC(=O)O)Oc3ccc(-c4cc(F)cc(F)c4Cl)cc32)ccc1F [Compound 6K, (S)-3-(6-(2-chloro-3,5-difluorophenyl)-4-((4-fluoro-3-methoxyphenyl)sulfonyl)-3,4-dihydro-2H-benzo[b][1,4]oxazin-2-yl)propanoic acid] | < 500 | *** (The symbol “***” indicates a value in the range of greater than 150 to 200) | < 500 | ** (The symbol “**” indicates a value in the range of greater than 90 to 150) |
| O=C(O)CC[C@H]1CN(S(=O)(=O)c2cccc(OC(F)F)c2)c2cc(-c3cc(F)cc(F)c3Cl)ccc2O1 [Compound 6L, (S)-3-(6-(2-chloro-3,5-difluoro-phenyl)-4-((3-(difluoromethoxy)-phenyl)sulfonyl)-3,4-dihydro-2H-benzo[b][1,4]oxazin-2-yl)propanoic acid] | < 500 | *** (The symbol “***” indicates a value in the range of greater than 150 to 200) | < 500 | ** (The symbol “**” indicates a value in the range of greater than 90 to 150) |
| O=C(O)CC[C@H]1CN(S(=O)(=O)c2cccc(C(F)(F)F)c2)c2cc(-c3cccc(Cl)c3)c(Cl)cc2O1 [Compound 7, (S)-3-(7-chloro-6-(3-chlorophenyl)-4-((3-(trifluoromethyl)phenyl)sulfonyl)-3,4-dihydro-2H-benzo[b][1,4]oxazin-2-yl)propanoic acid] | < 500 | **** (The symbol “****” indicates a value greater than 200) | < 500 | ** (The symbol “**” indicates a value in the range of greater than 90 to 150) |
| O=C(O)CC[C@H]1CN(S(=O)(=O)c2cccc(C(F)(F)F)c2)c2cc(-c3cccc(Cl)c3)cc(F)c2O1 [Compound 8, (S)-3-(6-(3-chlorophenyl)-8-fluoro-4-((3-(trifluoromethyl)phenyl)sulfonyl)-3,4-dihydro-2H-benzo[b][1,4]oxazin-2-yl)propanoic acid] | < 500 | **** (The symbol “****” indicates a value greater than 200) | < 500 | ** (The symbol “**” indicates a value in the range of greater than 90 to 150) |

Source: patent US10611740B2, “Aryl dihydro-2H-benzo[b][1,4]oxazine sulfonamide and related compounds for use as agonists of RORγ and the treatment of disease” (Lycera Corporation, priority 2015, dated 2020)
